Results from PMC4604124, “In Vitro Characterization of the Pharmacological Properties of the Anti-Cancer Chelator, Bp4eT, and Its Phase I Metabolites” (PLoS ONE, 2015).
“And” between values parts separate entries of the source, which are not always exact repeats. Equal entries are not always repeated.

Test system: LC3-II
Assay: Western blot and densitometry of LC3-I/II (autophagy)
Format: cell-based, human
Conditions: for densitometry WB, relative to NT = 1: single blot
Text: Established protocols were used to prepare cell lysates and perform immunoblot analysis. Primary antibodies used include: rabbit LC3 (Cat. #: MBPM036; 1:2,000) from Abacus (Brisbane, Australia) and mouse β-actin (Cat. #: A1978, 1:10,000) from Sigma-Aldrich. The following secondary antibodies were utilized: horseradish peroxidase (HRP)-conjugated anti-rabbit (Cat. #: A6154, […]) and anti-mouse (Cat. #: A4416, 1:10,000) antibodies from Sigma-Aldrich. To ensure equal loading of proteins, membranes were probed for β-actin.

[1] = Supplementary Fig 2, 5uM (5M [sic] for Bp4eT)
[2] = Supplementary Fig 2, Baf+, 10nM
[3] = Supplementary Fig 2, Baf+, 100nM
[4] = Supplementary Fig 2, Baf+, 5uM (5M [sic] for Bp4eT)

Structure (SMILES): CCNC(=S)NN=C(c1ccccc1)c1ccccn1 [Bp4eT, 2-benzoylpyridine 4-ethyl-3-thiosemicarbazone]
- LC3II expression with Baf A1 relative to Baf A1 and control (24 h/37°C, MCF-7, agent at all concentrations (10 nM– 5 μM), Baf A1 100 nM): did not lead to a significant (p > 0.05) increase
- LC3-II levels upon co-incubation with Baf A1, compared to Baf A1 alone (72 h/37°C, MCF-7, Baf A1 100 nM, Bp4eT 10 and 100 nM, Dp44mT 100 nM): significant (p < 0.001–0.05) suppression
- densitometry WB, relative to NT = 1, Average (Fig 7E, 10nM): 6.247
- densitometry WB, relative to NT = 1 (Fig 7E, 10nM): 4.981 and 5.294 and 8.4664
- densitometry WB, relative to NT = 1, Average (Fig 7E, 100nM): 6.003
- densitometry WB, relative to NT = 1, Average (Supplementary Fig 2, 10nM): 1.7596
- densitometry WB, relative to NT = 1, Average (Supplementary Fig 2, 100nM): 0.8507
- densitometry WB, relative to NT = 1, Average [1]: 0.7357
- densitometry WB, relative to NT = 1 [1]: 0.9358 and 0.7729 and 0.4982
- densitometry WB, relative to NT = 1, Average [2]: 143.432
- densitometry WB, relative to NT = 1 [2]: 159.536 and 131.647 and 139.114
- densitometry WB, relative to NT = 1, Average [3]: 74.7567
- densitometry WB, relative to NT = 1 [3]: 63.4737 and 60.9216 and 99.8746
- densitometry WB, relative to NT = 1, Average [4]: 159.207
- densitometry WB, relative to NT = 1 [4]: 188.04 and 116.854 and 172.727
- LC3-II levels compared to the control (agent alone, 72 h/37°C, MCF-7, Bp4eT 10 and 100 nM, Dp44mT 100 nM, Baf A1 100 nM): slight, but significant (p < 0.05) increase
